Where a chain is given by its changes, count along the chain named. Where two headings read alike, the source gives them in different places.
Columns and labels:
[1] = target: human/rat alpha1B adrenergic receptor; experiment: Selective binding assay, competition with [125I]-HEAT on COS-7 membranes, α1B; parameters: species or system human/rat hybrid
Procedure: The partial human alpha1B adrenergic receptor cDNA was joined to the 3' end of the rat alpha1B adrenergic receptor cDNA at their common BssHII restriction endonuclease site. ID:25:
The complete coding region for the human/rat alpha1B adrenergic receptor was subcloned into the eukaryotic expression vector pcDNAI-neo (Invitrogen). The resulting plasmid was transfected into COS-7 cells by electroporation. […] Binding reactions (total volume=200 ul) contained 50 mM Tris-HCl pH. […] Reactions are incubated at room temperature for one hour with shaking. Reactions were filtered onto Whatman GF/C glass fiber filters with a Brandel cell harvester. Filters were washed three times with ice cold buffer and bound radioactivity was determined.
(§1) These competition binding reactions (total volume=200 ul) contain 50 mM Tris-HCl pH. […] Reactions are incubated at room temperature for one hour with shaking. Reactions were filtered onto Whatman GF/C glass fiber filters with a Brandel cell harvester. Filters were washed three times with ice cold buffer and bound radioactivity was determined. Binding data were analyzed and IC50s determined by an iterative curve fitting program.

[2] = target: human alpha1A adrenergic receptor; experiment: Selective binding assay, competition with [125I]-HEAT on COS-7 membranes, α1A; conditions: Table I, 100 pM [125I]-HEAT
Procedure: The resulting plasmid was transfected into COS-7 cells by electroporation.
(§2) Binding reactions (total volume=200 ul) contained 50 mM Tris-HCl pH. […] Reactions are incubated at room temperature for one hour with shaking. Reactions were filtered onto Whatman GF/C glass fiber filters with a Brandel cell harvester. Filters were washed three times with ice cold buffer and bound radioactivity was determined.
as §1

[3] = target: T1, human alpha-1c adrenergic receptor, allele 2 (LCR) (Homo sapiens, UniProt P35348); experiment: biochemical
T1 sequence (P35348 1-466): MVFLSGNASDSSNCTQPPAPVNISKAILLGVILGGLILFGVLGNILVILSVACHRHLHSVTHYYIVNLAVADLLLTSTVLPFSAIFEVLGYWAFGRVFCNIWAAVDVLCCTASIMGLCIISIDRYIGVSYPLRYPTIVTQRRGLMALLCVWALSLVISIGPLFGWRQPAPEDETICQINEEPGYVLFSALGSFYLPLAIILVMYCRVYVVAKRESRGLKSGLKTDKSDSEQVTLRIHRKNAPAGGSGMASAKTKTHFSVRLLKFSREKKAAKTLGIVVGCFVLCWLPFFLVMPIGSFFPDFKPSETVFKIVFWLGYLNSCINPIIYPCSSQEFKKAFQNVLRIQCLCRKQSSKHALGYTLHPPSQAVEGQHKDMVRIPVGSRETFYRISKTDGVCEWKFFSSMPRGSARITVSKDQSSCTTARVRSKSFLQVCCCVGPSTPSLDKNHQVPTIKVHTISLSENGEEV
Excerpt: (§3) To investigate the pharmacological profiles of the two allelic forms of the human alpha-1c adrenergic receptor we ligated the genomic exon 2 fragment of allele 2 to a cDNA clone of allele 1 at a common PvuII restriction site. The two allelic forms were transiently expressed in COS-7 cells using pcDNAI/NEO (Invitrogen) expression vector.

[4] = target: T2, human alpha-1c adrenergic receptor, allele 1 (LRR) (Homo sapiens, UniProt P35348, C347R); experiment: biochemical
T2 sequence (P35348 1-466 C347R): T1 sequence (P35348 1-466) with C347R
Excerpt: as §3

[5] = target: T3, human alpha1C adrenergic receptor (Homo sapiens, UniProt P35348, C347R); experiment: Selective binding assay, competition with [125I]-HEAT on COS-7 membranes, α1C; conditions: Table I, 100 pM [125I]-HEAT
T3 construct: expressed in transfected cells; host or cells: COS-7 cells (pcDNAI-neo, electroporation), membranes
T3 sequence (P35348 1-466 C347R): T1 sequence (P35348 1-466) with C347R
Procedure: as §2, with “The resulting plasmid was transfected into COS-7 cells by electroporation. […] Binding” for “Binding”, “were” for “are”
as §1, §1

[6] = Table I, 100 pM [125I]-HEAT, COS-7 membranes

| SMILES | IC50 [1, 6] [nM] | IC50 [2] [nM] | IC50 [5] [nM] | other results |
| --- | --- | --- | --- | --- |
| COc1ccccc1N1CCN(CCCNc2c(C)c(=O)n(C)c(=O)n2C)CC1 [5-methyl urapidil] | 270 | 42 | 3.5 | IC50 [3]: 4.3 nM; IC50 [4]: 3.1 nM |
| COC(=O)C1=C(C)NC(C)=C(C(=O)OCCCN2CCC(c3ccccc3)(c3ccccc3)CC2)[C@H]1c1cccc([N+](=O)[O-])c1 [S(+) niguldipine] |  |  |  | IC50 [1]: 670 nM |
| COc1cccc(OC)c1OCCNCC1COc2ccccc2O1 (centres unmarked) [WB4101] | 16 | 1 | 1 | IC50 ([3]; read-out: IC50 LCR, Table II, allele 2 (Cys at amino acid 347), COS-7, 125I-HEAT): 1 nM; IC50 [4]: 0.9 nM |
| COc1cccc(OC)c1OCCNCC1CSc2ccccc2O1 (centres unmarked) [benoxathian] | 68 | 2.5 | 1.5 |  |
| COc1cc2nc(N3CCN(C(=O)C4COc5ccccc5O4)CC3)nc(N)c2cc1OC (centres unmarked) [doxazosin] | 2 |  |  |  |
| CC(COc1ccccc1)N(CCCl)Cc1ccccc1 (centres unmarked) [phenoxybenzamine] | 4.3 | 6.1 |  |  |
| Cc1ccc(N(CC2=NCCN2)c2cccc(O)c2)cc1 [phentolamine] | 650 |  |  |  |
| COc1cc2nc(N3CCN(C(=O)c4ccco4)CC3)nc(N)c2cc1OC [prazosin] |  |  |  | IC50 [1]: 2.4 nM |
| COc1cc2nc(N3CCN(C(=O)C4CCCO4)CC3)nc(N)c2cc1OC (centres unmarked) [terazosin] | 5 |  |  |  |
